Data published in US20250302975A1, “METHODS AND COMPOSITIONS FOR AGONISING TLR3” (priority 2024, published 2025).

Columns and labels:
[1] = test system: CT26 tumors induced by i.p. inoculation; assay: CT26 colon cancer i.p. model, i.p. treatment (Example 1); type: in vivo, BALB/c mice; conditions: for tumor growth inhibition: i.p. treatment on days 3, 10 and 17, compared to PBS control
Procedure: (§1) Female BALB/c and C57BL/6 mice (6-7 weeks old) were purchased from the Jackson Laboratory. All animal studies were approved by and conducted according to the regulation of the Institutional Animal Care and Use Committee of the University of California, San Diego. CT26 cells were administered via the intraperitoneal (i.p.) and subcutaneous (s.c.) routes. […] Treatments were administered three times at weekly intervals. The body circumference and weight were recorded for 40 days at 2-day intervals and mice were euthanized when the circumference reached ˜8 cm. To establish the CT26 colon cancer s.c. model, CT26 cells (1.5×10^5 cells in 15 μL PBS) were mixed with 15 μL Matrigel (Corning) and injected s.c. into the left flank of BALB/c mice. […] The tumor volumes, calculated using the equation tumor width^2×tumor length)/2, and body weight were recorded for 40 days at 2-day intervals and mice were euthanized when the tumor volume reached ˜1500 mm^3.

s.c. CT26 tumors = assay: CT26 colon cancer s.c. model, intratumoral treatment (Example 1); type: in vivo, BALB/c mice; conditions: i.t. treatment
Procedure: as §1

[2] = test system: CT26 tumors induced by i.p. inoculation; conditions: reference [17]; cited from earlier work
RAW-Blue cells = RAW-Blue cells / Quanti-Blue SEAP assay, in vitro immunogenicity (Example 1); type: cell-based; parameters: dose or concentration left out as unconfirmed; conditions: 24 h
Procedure: RAW-Blue cells (InvivoGen) were grown in Dulbecco's Modified Eagle's Medium (DMEM) supplemented with 10% (v/v) heat-sterilized fetal bovine serum (FBS; Atlanta Biologicals) and 1% (v/v) penicillin/streptomycin (p/s; Thermo Fisher Scientific). Normocin ([…]) and zeocin ([…]) were also added according to the supplier's instructions (InvivoGen). CT26 cells obtained from the ATCC were grown in Roswell Park Memorial Institute (RPMI) 1640 medium and DMEM, respectively, each supplemented with 10% (v/v) FBS and 1% (v/v) p/s.
Lipopolysaccharide (LPS; InvivoGen) was used as a positive control. After the incubation, 20 μL of the supernatant was mixed with 180 μL of Quanti-Blue solution (InvivoGen) and incubated at room temperature for 6 h. The absorbance was then measured at 630 nm using a microplate reader (Tecan).

| Compound | survival rate ([1]; compared to mice treated with CCMV or poly(I:C) alone) | tumor growth inhibition [1] | tumor volume (s.c. CT26 tumors; day 26) | impact on CT26 tumors (previous work) [2] | SEAP levels versus PBS-treated control (RAW-Blue cells) | body weight of CT26-bearing mice ([1]; weight gain is due to growth of the tumor) | tumor growth by day 26 (s.c. CT26 tumors) |
| --- | --- | --- | --- | --- | --- | --- | --- |
| O=C1[O][Pt]2([NH][C@@H]3CCCC[C@H]3[NH]2)[O]C1=O [oxaliplatin] | slightly increased the survival rate | significantly inhibited tumor growth | ~233 mm^3 | – | – | – | – |
| ODN1826 | – | – | – | minimal impact | – | – | – |
| polyinosinic:polycytidylic acid [poly(I:C)] | – | slight inhibitory effect, albeit not statistically significant | – | – | did not differ significantly | increased | 30 fold |
